# Test system: histamine H2 -receptors
# Assay: inhibition of histamine-stimulated secretion of gastric acid from the lumen-perfused stomachs of rats anaesthetised with urethane
# Format: in vivo
# Conditions: i.v., lumen-perfused stomach of urethane-anaesthetised rats
smiles,measurement,value
"N=C(N)Nc1nc(CSCCNC2=C([N+](=O)[O-])CCCN2)cs1 [Example 1, 2-[2-(2-Guanidino-4-thiazolylmethylthio)ethylamino-]-3-nitro-1,4,5,6-tetrahydropyridine]",dose causing 50% inhibition of maximal acid secretion,less than 0.1 micromole kh^-1

# — patent US4307104A, “Guanidine compounds” (Smith Kline & French Laboratories Limited, priority 1979, dated 1981)
